We go through 1 compound from US20180362766A1, “Fluorogenic pH-Sensitive Dyes and Their Methods of Use” (Life Technologies Corporation, priority 2012, published 2018).

This assay relates to phagocytic J774.2 murine macrophages. The experiment in a line: No-wash phagocytosis assay with dye-conjugated E. coli bioparticles. The class given is cell-based. Conditions: E. coli bioparticles conjugated to a pH-sensitive fluorescent dye. The source says: Certain embodiments provide for a no-wash, no-quench assay for phagocytosis that is based on fluorogenic bioparticles comprising the pH-sensitive fluorescent dye compounds provided herein. Current protocols for measuring phagocytosis that use fluorescent bioparticles, require a trypan blue quenching step and several washing steps. These steps can introduce significant variability in the assay. To address this issue, provided herein is a no-wash phagocytosis kit, using E. coli bioparticles conjugated to a pH-sensitive fluorescent dye as described herein. These bioparticle conjugates are weakly fluorescent at extracellular pH. […] The pH-sensitive fluorescent bioparticles described herein may be used in plate based, as well as imaging and flow cytometry assays of phagocytosis.

Take `C=C1[C@@H](C)[C@H]2[C@H](Cc3ccccc3)NC(=O)[C@]23[C@H](OC(C)=O)/C=C/[C@@](C)(O)C(=O)[C@@H](C)C/C=C/[C@H]3[C@@H]1O` [cytochalaisin D, cytochalasin D]: the “inhibition of uptake of the bioparticles (phagocytosis)” value is reported as “potently inhibited”.
